The source made the active and inactive calls. The rule behind the calls is not given here.
Legend:
Assay type in all cases: functional, cell-based
[1] = tested on: 3Y1 cell line; test: Induction of morphological changes in rat 3Y1 cells assessed as protrusions in cell membrane at 4.2 uM measured after 5 mins by IncuCyte live cell imaging method
[2] = tested on: 3Y1 cell line; test: Cytotoxicity against rat 3Y1 cells after 72 hrs by MTT assay; conditions: 3Y1, 72 h
[3] = tested on: 3Y1 cell line; test: Induction of morphological changes in rat 3Y1 cells assessed as protrusions in cell membrane at 0.05 uM measured after 5 mins to 48 hrs by IncuCyte live cell imaging method
[4] = tested on: 3Y1 cell line; test: Induction of morphological changes in rat 3Y1 cells assessed as protrusions in cell membrane at 1.9 uM measured after 5 mins to 48 hrs by IncuCyte live cell imaging method
[5] = tested on: 3Y1 cell line; test: Induction of morphological changes in rat 3Y1 cells assessed as protrusions in cell membrane at 41 uM measured after 5 mins to 48 hrs by IncuCyte live cell imaging method
[6] = tested on: 3Y1 cell line; test: Induction of morphological changes in rat 3Y1 cells assessed as protrusions in cell membrane at 2.7 uM measured after 5 mins to 48 hrs by IncuCyte live cell imaging method

Structure (SMILES): CO[C@@H]([C@@H](C)[C@@H](CC[C@H](C)[C@H](C[C@@H]1OC(=O)C[C@@H](O)C/C=C/C(=O)[C@H](C)[C@H](OC)c2coc(n2)-c2coc(n2)-c2coc(n2)/C=C/C[C@H](OC)[C@H]1C)OC)OC(=O)[C@@H](C)OC)[C@H](C)/C=C/N(C)C=O
- Activity [1]: Active
- IC50 [2]: 7 nM

Structure (SMILES): CO[C@H]1C[C@H](CC[C@H](C)[C@H](O)[C@H](C)[C@H]2OC(=O)/C(C)=C/C[C@H](O)C[C@@H]3C=CC[C@@H](C[C@H](OC)[C@@H](C)[C@@H](O)C[C@@H](O)[C@H](C)[C@@H]([C@@H](C)[C@@H](O)[C@@H](C)CC[C@H]4C[C@H](OC)C[C@H](C)O4)OC(=O)/C(C)=C/C[C@H](O)C[C@@H]4C=CC[C@@H](C[C@H](OC)[C@@H](C)[C@@H](O)C[C@@H](O)[C@@H]2C)O4)O3)O[C@@H](C)C1
- Activity [3]: Active

Structure (SMILES): C/C1=C/C(=O)O[C@@H]2C[C@@H](CC[C@H](C)/C=C\C=C\CC1)O[C@@](O)([C@@H]1CSC(=O)N1)C2
- Activity [4]: Active

Structure (SMILES): C=C1[C@@H](C)[C@H]2[C@H](Cc3ccccc3)NC(=O)[C@]23OC(=O)/C=C/[C@@H](O)CCC[C@@H](C)C/C=C/[C@H]3[C@@H]1O
- Activity [5]: Active

Structure (SMILES): COC[C@@H](OC)C(=O)O[C@H](CC[C@H](C)[C@H](C[C@@H]1OC(=O)C[C@@H](O)C/C=C/C(=O)[C@H](C)[C@H](OC)c2coc(n2)-c2coc(n2)-c2coc(n2)/C=C/C[C@H](OC)[C@H]1C)OC)[C@H](C)[C@H](OC(C)=O)[C@H](C)/C=C/N(C)C=O
- Activity [6]: Active

Structure (SMILES): CO[C@H]([C@H](C)/C=C/N(C)C=O)[C@@H](C)C(=O)CC[C@H](C)[C@H](C[C@@H]1OC(=O)C[C@@H](O)C/C=C/C(=O)[C@H](C)[C@H](OC)c2coc(n2)-c2coc(n2)-c2coc(n2)/C=C/C[C@H](OC)[C@H]1C)OC
- IC50 [2]: 7 nM
